Drawing on PubChem BioAssay (NCI), this text covers TGI and GI50 for 8 compounds.

Test systems include 786-0 renal; SN12C renal; SNB-75 CNS; U251 CNS; HCT-116 colon; HCT-15 colon; IGROV1 ovarian; SK-OV-3 ovarian; UACC-62 melanoma; OVCAR-3 ovarian.
Assay in all cases: NCI anticancer screen, dose series, 48 h

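Step 1: Grow cells in 96-well plates. Step 2: Expose to compound for 48 hours at 5 concentrations. Step 3: Interpolate endpoints linearly; if unreached, use highest concentration. GI50 marks 50% less growth. The concentration for full growth arrest is given as TGI.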 Bounds are passed on as bounds.

`CC(O)CN1C(=O)NC(Cc2ccccc2)C1=O` (stereo not drawn): the TGI in the assay with 786-0 renal, with SN12C renal, in the assay on SNB-75 CNS and in the assay with U251 CNS was more than 100 µM each time.

On to `CNC(=O)c1cn(C[C@H](F)CCc2ccc(NC(=O)Cc3cc(OC4CC(F)(F)C4)cc(C)n3)nn2)nn1`, for which the GI50 in the assay with 786-0 renal, with HCT-116 colon, with HCT-15 colon, with IGROV1 ovarian, in the assay with SK-OV-3 ovarian and in the assay with SNB-75 CNS was more than 100 µM each time. In addition, the GI50 with U251 CNS was 0.102 µM; in the assay with UACC-62 melanoma, more than 100 µM. For the same compound, the TGI with 786-0 renal, in the assay with HCT-116 colon, with HCT-15 colon, with IGROV1 ovarian, with SK-OV-3 ovarian and with SN12C renal was more than 100 µM throughout. Also, the TGI with SNB-75 CNS, in the assay with U251 CNS and in the assay with UACC-62 melanoma was more than 100 µM throughout.

As for `COC(=O)C(Cc1ccccc1)N/C=C\C(=O)c1ccc(Cl)cc1` (stereo not drawn), the GI50 is 23.6 µM in the assay with 786-0 renal; 16.4 µM in the assay on HCT-116 colon; 23.6 µM with HCT-15 colon; more than 100 µM in the assay on IGROV1 ovarian; 26.7 µM in the assay with SK-OV-3 ovarian; 16.7 µM in the assay with SN12C renal. The GI50 with SNB-75 CNS is more than 100 µM; with U251 CNS, 22 µM; in the assay on UACC-62 melanoma, 19.7 µM. The TGI in the assay with 786-0 renal is 61.9 µM; in the assay with HCT-116 colon it was 36.9 µM; in the assay with HCT-15 colon, 59.3 µM; with IGROV1 ovarian, more than 100 µM; in the assay with SK-OV-3 ovarian it was 92.4 µM; in the assay on SN12C renal, 40.5 µM. The TGI with SNB-75 CNS was more than 100 µM; in the assay with U251 CNS, 51.7 µM; in the assay on UACC-62 melanoma, 45.8 µM.

Regarding `COC(=O)NC/C=C\c1nc(CC/C=C\C(=O)OC2CC3CC(=O)O[C@@H](/C=C/CC(C)C)C[C@@H]4CCC(C)C(C[C@@H](OC)CC(C2)O3)O4)co1` (stereo partly drawn), the GI50 in the assay with 786-0 renal is less than 0.01 µM; in the assay on HCT-116 colon, less than 0.01 µM; in the assay on HCT-15 colon, less than 0.01 µM; with SK-OV-3 ovarian, more than 100 µM; with SNB-75 CNS it was more than 100 µM; in the assay with U251 CNS, less than 0.01 µM. Besides, in the assay with UACC-62 melanoma, the GI50 is 0.412 µM. Moreover, the TGI with 786-0 renal is 39.9 µM; in the assay with HCT-116 colon it was 57.5 µM; with HCT-15 colon, 20.7 µM; with SK-OV-3 ovarian, more than 100 µM; in the assay with SNB-75 CNS, more than 100 µM; with U251 CNS it was 72.4 µM. This compound also yielded a TGI in the assay with UACC-62 melanoma of 25.6 µM.

For the compound `Clc1ccc(CNc2nc3ccccc3nc2-c2cccs2)c(Cl)c1`, the TGI in the assay with 786-0 renal, in the assay with HCT-116 colon, with HCT-15 colon, with OVCAR-3 ovarian, in the assay on SN12C renal and in the assay with U251 CNS was more than 100 µM in each case.

As to `CC/C=C\C/C=C\C1CC(=O)NCCCNCCCCN1` (stereo not drawn), the TGI with 786-0 renal, in the assay on HCT-116 colon, in the assay on SN12C renal, in the assay on SNB-75 CNS and with U251 CNS was more than 100 µM in each case.

For `Cc1ccc(C(=O)CC(Sc2cccc(Cl)c2Cl)c2ccc(Cl)cc2)cc1C` (stereo not drawn), the GI50 with 786-0 renal is 17.8 µM; in the assay on HCT-116 colon, 19.4 µM; with IGROV1 ovarian it was 19.7 µM; in the assay with OVCAR-3 ovarian, 15.4 µM; in the assay on SK-OV-3 ovarian, 23.3 µM; in the assay with SN12C renal, 16.1 µM. The GI50 in the assay with U251 CNS was 11.5 µM; in the assay on UACC-62 melanoma, 21.2 µM. The TGI is 36.2 µM with 786-0 renal; 49.8 µM in the assay with HCT-116 colon; 41.2 µM in the assay with IGROV1 ovarian; 31.1 µM in the assay on OVCAR-3 ovarian; 59.7 µM in the assay with SK-OV-3 ovarian; 32.7 µM with SN12C renal. In addition, the figures for the TGI in the assay on U251 CNS and in the assay with UACC-62 melanoma were 25.8 µM and 57.6 µM, respectively.

Consider `Cc1ncc(NC(=O)c2ccc(CN3CCN(C)CC3)c(C(F)(F)F)c2)cc1Nc1nccc(-c2cccnc2)n1`, for which the GI50 is 15.9 µM with 786-0 renal; 7.92 µM with HCT-116 colon; 13.6 µM in the assay on HCT-15 colon; 10.7 µM in the assay with IGROV1 ovarian; 19.3 µM in the assay with SK-OV-3 ovarian; 14.4 µM in the assay on SN12C renal. Also, the GI50 in the assay with SNB-75 CNS was 15.2 µM; in the assay with U251 CNS it was 15.9 µM; with UACC-62 melanoma, 13.2 µM. Also, the TGI was 29.7 µM with 786-0 renal; 21.7 µM in the assay on HCT-116 colon; 29.7 µM in the assay on HCT-15 colon; 24.4 µM in the assay on IGROV1 ovarian; 34.2 µM in the assay on SK-OV-3 ovarian; 28.9 µM with SN12C renal. Besides, the TGI amounted to 28.8 µM in the assay with SNB-75 CNS, 29.9 µM in the assay on U251 CNS and 26.2 µM in the assay on UACC-62 melanoma.
